Biological target: T1, human FXR (NR1H4) (Homo sapiens, UniProt Q96RI1)
T1 construct: host or cells: CHO (Chinese hamster ovary) reporter cells
T1 sequence (Q96RI1 1-486): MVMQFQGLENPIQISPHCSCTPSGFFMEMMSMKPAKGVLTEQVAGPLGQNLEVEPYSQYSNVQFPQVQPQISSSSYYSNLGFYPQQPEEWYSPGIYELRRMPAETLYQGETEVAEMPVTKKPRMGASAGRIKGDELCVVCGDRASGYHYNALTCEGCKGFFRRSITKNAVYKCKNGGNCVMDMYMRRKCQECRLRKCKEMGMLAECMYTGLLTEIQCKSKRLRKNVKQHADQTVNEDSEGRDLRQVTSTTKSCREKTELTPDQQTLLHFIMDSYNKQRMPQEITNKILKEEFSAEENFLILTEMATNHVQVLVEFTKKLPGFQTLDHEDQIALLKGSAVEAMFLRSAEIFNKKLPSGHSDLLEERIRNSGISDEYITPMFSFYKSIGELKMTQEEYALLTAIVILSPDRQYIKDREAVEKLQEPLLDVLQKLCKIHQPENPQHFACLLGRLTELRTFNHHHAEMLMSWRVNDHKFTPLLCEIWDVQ
Experiment: Human FXR (NR1H4) Assay: Gal4 promoter driven luciferase reporter transactivation in CHO cells (Indigo Bioscience kit IB00601); on Efficacy (%): efficacy normalized to CDCA set as 100%
Assay type: cell-based
Details: for Emax: CHO, read-out: Efficacy (%); for EC50: Human FXR (NR1H4) reporter assay, potency ranges
Excerpt: Human FXR (NR1H4) Assay Determination of a ligand mediated Gal4 promoter driven transactivation to quantify ligand binding mediated activation of FXR. FXR Reporter Assay kit purchased from Indigo Bioscience (Catalogue number: IB00601) to determine the potency and efficacy of compound developed by Enanta that can induce FXR activation. The principle application of this reporter assay system is to quantify functional activity of human FXR. The assay utilizes non-human mammalian cells, CHO (Chinese hamster ovary) cells engineered to express human NR1H4 protein (referred to as FXR). Reporter cells also incorporate the cDNA encoding beetle luciferase which catalyzes the substrates and yields photon emission. Luminescence intensity of the reaction is quantified using a plate-reading luminometer, Envision. Reporter Cells include the luciferase reporter gene functionally linked to an FXR responsive promoter. Thus, quantifying changes in luciferase expression in the treated reporter cells provides a sensitive surrogate measure of the changes in FXR activity. […] The assay is according to the manufacturer's instructions. In brief, the assay was performed in white, 96 well plates using final volume of 100 ul containing cells with different doses of compounds. Retrieve Reporter Cells from −80° C. storage. Perform a rapid thaw of the frozen cells by transferring a 10 ml volume of 37° C. cell recovery medium into the tube of frozen cells. Recap the tube of Reporter Cells and immediately place it in a 37° C. water bath for 5-10 minutes. Retrieve the tube of Reporter Cell Suspension from the water bath. Sanitize the outside surface of the tube with a 70% alcohol swab, and then transfer it into the cell culture hood. Dispense 90 μl of cell suspension into each well of the 96-well Assay Plate. Transfer the plate into 37° C. incubator, allowing the cells adherent to the bottom of the well. Dilute compounds in Dilution Plate (DP), and administrate to cells at Assay Plate (AP). DMSO content of the samples was kept at 0.2%. Cells were incubated for additional 22 hours before luciferase activities were measured. Thirty minutes before intending to quantify FXR activity, remove Detection Substrate and Detection Buffer from the refrigerator and place them in a low-light area so that they may equilibrate to room temperature. Remove the plate's lid and discard all media contents by ejecting it into an appropriate waste container. Gently tap the inverted plate onto a clean absorbent paper towel to remove residual droplets. Cells will remain tightly adhered to well bottoms. Add 100 ul of luciferase detection reagent to each well of the assay plate. Allow the assay plate to rest at room temperature for at least 5 minutes following the addition of LDR. Set the instrument (Envision) to perform a single 5 second “plate shake” prior to reading the first assay well. Read time may be 0.5 second (500 mSec) per well.

Structure (SMILES)	Emax	EC50
O=C(NS(=O)(=O)C(F)(F)F)c1ccc2nc(N3C4CCC3CC(NCc3c(-c5c(Cl)cccc5Cl)noc3C3CC3)C4)sc2c1 (centres unmarked) [Example 236]	75%	1 to 100 nM
CC(C)S(=O)(=O)NC(=O)c1ccc2nc(N3C4CCC3CC(NCc3c(-c5c(Cl)cccc5Cl)noc3C3CC3)C4)sc2c1 (centres unmarked) [Example 237]	226%	1 to 100 nM
CC(C)(C)CS(=O)(=O)NC(=O)c1ccc2nc(N3C4CCC3CC(NCc3c(-c5c(Cl)cccc5Cl)noc3C3CC3)C4)sc2c1 (centres unmarked) [Example 239]	201%	1 to 100 nM
CC(C)(C)S(=O)(=O)NC(=O)c1ccc2nc(N3C4CCC3CC(NCc3c(-c5c(Cl)cccc5Cl)noc3C3CC3)C4)sc2c1 (centres unmarked) [Example 240]	245%	< 1 nM
O=C(NS(=O)(=O)c1ccccc1)c1ccc2nc(N3C4CCC3CC(NCc3c(-c5c(Cl)cccc5Cl)noc3C3CC3)C4)sc2c1 (centres unmarked) [Example 257]	203%	1 to 100 nM
O=C(NS(=O)(=O)c1nccs1)c1ccc2nc(N3C4CCC3CC(NCc3c(-c5c(Cl)cccc5Cl)noc3C3CC3)C4)sc2c1 (centres unmarked) [Example 268]	129%	100 to 1000 nM
CN(c1nc2ccc(C(=O)NS(=O)(=O)N(C)C)cc2s1)C1CCC(OCc2c(-c3c(Cl)cccc3Cl)noc2C2CC2)CC1 (centres unmarked) [Example 279]	158%	100 to 1000 nM
CN(C)S(=O)(=O)NC(=O)c1ccc2nc(N3C4CCC3CN(Cc3c(-c5c(Cl)cccc5Cl)noc3C3CC3)C4)sc2c1 [Example 280]	242%	1 to 100 nM
CN(C)S(=O)(=O)NC(=O)c1ccc2nc(N3CCN(Cc4c(-c5c(Cl)cccc5Cl)noc4C4CC4)CC3)sc2c1 [Example 281]	171%	1 to 100 nM
CN(C)S(=O)(=O)NC(=O)c1ccc2nc(N3CCC(NCc4c(-c5c(Cl)cccc5Cl)noc4C4CC4)CC3)sc2c1 [Example 282]	142%	1 to 100 nM
CN(C)S(=O)(=O)NC(=O)c1ccc2nc(N3C4CCC3CC(NCc3c(-c5c(Cl)cccc5Cl)noc3C3CC3)C4)sc2c1 (centres unmarked) [Example 283]	246%	> 1000 nM
CC(C)(C)c1ccc(S(=O)(=O)NC(=O)c2ccc3nc(N4C5CCC4CC(NCc4c(-c6c(Cl)cccc6Cl)noc4C4CC4)C5)sc3c2)cc1 (centres unmarked) [Example 284]	54%	> 1000 nM
CC(C)(C)c1ccc(S(=O)(=O)NC(=O)c2cccc(N3CCN(Cc4c(-c5c(Cl)cccc5Cl)noc4C4CC4)CC3)c2)cc1 [Example 285]	126%	100 to 1000 nM
O=C(NS(=O)(=O)C1CC1)c1ccc2nc(N3CCC(NCc4c(-c5c(Cl)cccc5Cl)noc4C4CC4)CC3)sc2c1 [Example 291]	171%	1 to 100 nM
CN(Cc1c(-c2c(Cl)cccc2Cl)noc1C1CC1)[C@H]1C[C@H]2CC[C@@H](C1)N2c1nc2ccc(C(=O)NS(=O)(=O)C3CC3)cc2s1 [Example 292]	212%	1 to 100 nM
CN(Cc1c(-c2c(Cl)cccc2Cl)noc1C1CC1)[C@H]1C[C@H]2CC[C@@H](C1)N2c1nc2ccc(C(=O)NS(=O)(=O)C3(C)CC3)cc2s1 [Example 293]	92%	1 to 100 nM
CC1(S(=O)(=O)NC(=O)c2ccc3nc(N4C5CCC4CC(N(C=O)Cc4c(-c6c(Cl)cccc6Cl)noc4C4CC4)C5)sc3c2)CC1 (centres unmarked) [Example 294]	130%	> 1000 nM
CC1(S(=O)(=O)NC(=O)c2cc(F)c3nc(N4C5CCC4CC(NCc4c(-c6c(Cl)cccc6Cl)noc4C4CC4)C5)sc3c2)CC1 (centres unmarked) [Example 295]	152%	1 to 100 nM
[2H]C([2H])([2H])C1(S(=O)(=O)NC(=O)c2cc(F)c3nc(N4C5CCC4CC(NCc4c(-c6c(Cl)cccc6Cl)noc4C4CC4)C5)sc3c2)CC1 (centres unmarked) [Example 296]	184%	< 1 nM

Structure (SMILES)	Emax	EC50
CN(C)S(=O)(=O)NC(=O)c1cc(F)c2nc(N3C4CCC3CC(NCc3c(-c5c(Cl)cccc5Cl)noc3C3CC3)C4)sc2c1 (centres unmarked) [Example 297]	150%	< 1 nM
O=C(NS(=O)(=O)C1CC1)c1cc(F)c2nc(N3C4CCC3CC(NCc3c(-c5c(Cl)cccc5Cl)noc3C3CC3)C4)sc2c1 (centres unmarked) [Example 298]	155%	1 to 100 nM
O=CC1(S(=O)(=O)NC(=O)c2cc(F)c3nc(N4C5CCC4CC(NCc4c(-c6c(Cl)cccc6Cl)noc4C4CC4)C5)sc3c2)CC1 (centres unmarked) [Example 299]	154%	1 to 100 nM
O=C(NS(=O)(=O)N1CCCCC1)c1cc(F)c2nc(N3C4CCC3CC(NCc3c(-c5c(Cl)cccc5Cl)noc3C3CC3)C4)sc2c1 (centres unmarked) [Example 300]	143%	< 1 nM
CN(C)S(=O)(=O)NC(=O)c1ccc2nc(N3C4CCC3CC(NCc3c(-c5c(Cl)cccc5Cl)noc3C3CC3)C4)oc2c1 (centres unmarked) [Example 301]	63%	< 1 nM
CC1(S(=O)(=O)NC(=O)c2ccc3nc(N4C5CCC4CC(NCc4c(-c6c(Cl)cccc6Cl)noc4C4CC4)C5)oc3c2)CC1 (centres unmarked) [Example 302]	62%	1 to 100 nM
COc1cc(C(=O)NS(=O)(=O)C2(C)CC2)cc2sc(N3C4CCC3CC(NCc3c(-c5c(Cl)cccc5Cl)noc3C3CC3)C4)nc12 (centres unmarked) [Example 304]	139%	< 1 nM
CC1(S(=O)(=O)NC(=O)c2ccc3nc(N4CCC(NCc5c(-c6c(Cl)cccc6Cl)noc5C5CC5)CC4)sc3c2)CC1 [Example 305]	139%	100 to 1000 nM
CC1(S(=O)(=O)NC(=O)c2cc(OC(F)F)c3nc(N4C5CCC4CC(NCc4c(-c6c(Cl)cccc6Cl)noc4C4CC4)C5)sc3c2)CC1 [Example 323, 2-((1R,3r,5S)-3-(((5-cyclopropyl-3-(2,6-dichlorophenyl)isoxazol-4-yl)methyl)amino)-8-azabicyclo[3.2.1]octan-8-yl)-4-(difluoromethoxy)-N-((1-methylcyclopropyl)sulfonyl)benzo[d]thiazole-6-carboxamide]	150%	< 1 nM
O=C(NS(=O)(=O)N1CCCCC1)c1cc(OC(F)F)c2nc(N3C4CCC3CC(NCc3c(-c5c(Cl)cccc5Cl)noc3C3CC3)C4)sc2c1 (centres unmarked) [Example 328]	146%	< 1 nM
COc1nc2cc(C(=O)NS(=O)(=O)C3(C)CC3)ccc2nc1N1C2CCC1CC(NCc1c(-c3c(Cl)cccc3Cl)noc1C1CC1)C2 (centres unmarked) [Example 342]	76%	1 to 100 nM
O=C(NS(=O)(=O)N1CCCC1)c1cc(F)c2nc(N3C4CCC3CC(NCc3c(-c5c(Cl)cccc5Cl)noc3C3CC3)C4)sc2c1 (centres unmarked) [Example 400-1]	210%	1 to 100 nM
CC(C)Oc1cc(C(=O)NS(=O)(=O)C2CC2)cc2sc(N3CCC(NCc4c(-c5c(Cl)cccc5Cl)noc4C4CC4)CC3)nc12 [Example 400-3]	104%	1 to 100 nM
CC(C)Oc1cc(C(=O)NS(=O)(=O)C2(C)CC2)cc2sc(N3CCC(NCc4c(-c5c(Cl)cccc5Cl)noc4C4CC4)CC3)nc12 [Example 400-4]	97.5%	1 to 100 nM
CC(C)Oc1cc(C(=O)NS(=O)(=O)N2CCCC2)cc2sc(N3CCC(NCc4c(-c5c(Cl)cccc5Cl)noc4C4CC4)CC3)nc12 [Example 400-5]	110%	1 to 100 nM
CC(C)Oc1cc(C(=O)NS(=O)(=O)N2CCCCC2)cc2sc(N3CCC(NCc4c(-c5c(Cl)cccc5Cl)noc4C4CC4)CC3)nc12 [Example 400-6]	73.5%	1 to 100 nM
O=C(NS(=O)(=O)N1CCCC1)c1cc(F)c2nc(N3CCC(NCc4c(-c5c(Cl)cccc5Cl)noc4C4CC4)CC3)sc2c1 [Example 400-7]	91%	1 to 100 nM
O=C(NS(=O)(=O)N1CCCCC1)c1cc(F)c2nc(N3CCC(NCc4c(-c5c(Cl)cccc5Cl)noc4C4CC4)CC3)sc2c1 [Example 400-8]	79%	1 to 100 nM

— patent publication US10450306B2, “Isoxazole analogs as FXR agonists and methods of use thereof” (Enanta Pharmaceuticals, Inc., priority 2016, dated 2019)
